Data set [1] is classed as in vitro ADME, pig. The note with it: not told. The protocol: FITC labeled chitosan NPs were used.
b) Ethanol (100% Ethanol diluted with 50% PBS) c) 2-Dimethylaminopropionic acid dodecyl ester (DDAIP) (“DDAIP”) (2 g/100 ml diluted in PBS) d) Ethanol+DDAIP (100% Ethanol diluted with 4 g/100 ml of DDAIP to achieve the same final working concentration of Ethanol and DDAIP as used in (b) and (c) respectively. e) TDCA (100 mM diluted in PBS)
Fresh pig tongue was obtained from the Butcher shop at Cambridge. The middle portion of the tongue was selected for these studies. 5 designated sections were chosen on this portion and 0.75 mL of each of these PEs were applied at each of these sections, followed by the addition of the wafers (25 mg each) with additional 0.75 mL of PEs on top of the wafers. The incubation was done in the dark at RT for 1 hour. The tongue was then washed with water and all the wafers were removed from their designated sections. The respective sections were individually cut and embedded into an OCT for sectioning using a microtome. 50 microns slices were cut from each of these sections and 2 slices were placed on slides. The slides were kept submerged in water for 3 hours to remove any bound OCT as it interferes with the image quality. Following that, each of the slides from different sections were mounted with cover slips using a DAPI containing mounting media and imaged using a fluorescence microscope. Images were taken at 4×, 10× and 20× in both FITC and DAPI channels. In addition, slices of untreated tongue were also cut and imaged to account for inherent fluorescence of the tongue. However, before conducting permeation studies, many experiments were performed to discover the optimal concentrations of PEs that would not result in significant modifications to out current wafer synthesis protocol and allow seamless integration into the wafer.

Data set [2] deals with HCPC 1 (hamster cheek pouch carcinoma) cells. The experiment in a line: MTS cell viability assay. In kind it is cell-based. The settings on record: HCPC 1 cells, 48 h. The procedure:
A cell viability study of 33% cisplatin-loaded nanoparticles was also conducted using the tetrazolium compound (3-(4,5-dimethylthiazol-2-yl)-5-(3-carboxymethoxy phenyl)-2-(4-sulfophenyl)-2H-tetrazolium inner salt, MTS. When incorporated by the cells, MTS is bioreduced by metabolically active cells. The amount of […] is directly proportional to the number of living cells in culture.
(Formazan colour is commonly taken as a measure of viable cells.)

Data set [3] deals with hamster cheek pouch carcinoma (HCPC1) tumors. The experiment in a line: Tumor inhibition and weight change in HCPC1 allografted hamsters. In kind it is in vivo, Golden Syrian hamsters. The note with it: 1.15 mg/kg cisplatin equivalent; sponge topically, free cisplatin intraperitoneally. The procedure:
Golden Syrian hamsters, 71-80 g, were anesthetized and prepared for implantation of the tumor cells. Hamster cheek pouch carcinoma (HCPC 1) cells were collected from culture, and 1×10^8 cells suspended in PBS buffer were then injected subcutaneously into the cheek pouch of a hamster. After 7 days when tumors reached around 100 mm^3 in size, hamsters were divided into 4 groups, minimizing weight and tumor size difference. […] Two doses were administrated with 3-day interval. After treatments, the animals were monitored closely, and measurements of the tumor size and body weight for each animal were performed at regular intervals using calipers without knowledge of which injection each animal had received. The tumor volume for each time point was calculated according to the formula, (length)×(width)^2/2, where the long axis is the length, the short axis is the width.

The source of these data is patent US20140234212A1, “Targeted Buccal Delivery of Agents” (Massachusetts Institute of Technology, priority 2013, published 2014).

Structures are written as SMILES. Where two headings read alike, the source gives them in different places.

One may read the IC50 as the concentration needed to halve the response being measured.

As for `C[C@H](CCC(=O)NCCS(=O)(=O)O)[C@H]1CC[C@H]2[C@@H]3CC[C@@H]4C[C@H](O)CC[C@]4(C)[C@H]3C[C@H](O)[C@]12C` [TDCA], the “Permeation Depth” value in data set [1] is 100 microns. As to `CCO` [Ethanol], the “Permeation Depth” value in data set [1] (pig, 1 hour) is recorded as 140 microns. In data set [2], `N.N.[Cl][Pt][Cl]` [free cisplatin, cis-diamminedichloroplatinum(ll)] came in with an IC50 of around 60 nM. Further, in data set [3], the tumor inhibition result is recorded as “comparable decrease in tumor size” and the weight change entry is listed as “significant weight loss”. As to `CCCCCCCCCCCCOC(=O)C(C)N(C)C` (stereo not shown) [DDAIP, 2-Dimethylaminopropionic acid dodecyl ester], in data set [1] (pig, 1 hour), the “Permeation Depth” value is 200 microns. Further, in data set [1] (pig, 1 hour, 2 g/100 ml), the “depth permeated by the NPs” value is 200 μm.
